Data as given in patent US20260027065A1, “LIVER/ADIPOSE TISSUE DUAL-TARGETING COMPOSITE NANO-DRUG CARRIER” (IUCF-HYU (INDUSTRY-UNIVERSITY COOPERATION FOUNDATION …, priority 2022, published 2026).

Tested on: animal models of obesity-induced type 2 diabetes
Assay: Treatment effect (body weight, insulin resistance, biomarkers), type 2 diabetes model
Type: in vivo, C57BL/6J mice
Settings: ZnPP 0.25 mg/kg i.p. once a week for 4 weeks together with HO-1 inducer-encapsulated ATS/PLGA NPs 1 mg/kg i.v.; FIG. 9
Description: C57BL/6J mice were purchased from Orient Bio Inc. and acclimated for one week. From week 3, a 60% kcal high fat diet (HFD, Central Lab Animal, Inc.) was mixed with normal diet and fed. From week 6, only HFD was fed, and HFD was additionally fed for 8 weeks. In week 20, it was confirmed that the body weight reached 45 to 55 g, and the fasting blood glucose level also exceeded 250 mg/dl.
After constructing the animal models of obesity-induced type 2 diabetes and the animal models of obesity-induced non-alcoholic steatohepatitis, ATS/PLGA NPs in which 1 mg/kg of heme oxygenase-1 inducer was encapsulated were injected intravenously once a week for 4 weeks. Here, the results of a control administered intravenously with ATS/PLGA NPs (vehicle) in which 1 mg/kg of heme oxygenase-1 inducer was not encapsulated once a week for 4 weeks and a control administered intraperitoneally with 0.25 mg/kg of heme oxygenase-1 inhibitor (ZnPP) once a week for 4 weeks while intravenous administration with ATS/PLGA NPs in which 1 mg/kg of heme oxygenase-1 inducer was encapsulated once a week for 4 weeks were compared. The body weight was measured for 7 weeks, and then the mice were dissected to obtain mRNA and proteins from major organs such as the liver and adipose tissue for biomarker analysis.

C=CC1=C(C)c2cc3[n-]c(cc4[n-]c(cc5nc(cc1n2)C(C)=C5C=C)c(C)c4CCC(=O)O)c(CCC(=O)O)c3C.[Zn+2] [ZnPP]
Effect on body weight with co-administered HO-1 inhibitor: no effect
